Usually IC50 stands for the concentration needed to halve the response being measured.

The structures appear in SMILES notation. Some results are limits rather than exact numbers.

Data on 35 compounds can be found in patent US7842808B2, “Anti-migraine spirocycles” (Bristol-Myers Squibb Company, priority 2002, dated 2010).

For this experiment, the target named is T1, CGRP receptor (SK-N-MC cell membranes) (Homo sapiens, UniProt O60894+Q16602).
T1 construct: endogenous in cells; host or cells: SK-N-MC cells (membrane homogenate)
T1 sequence (Q16602 23-461): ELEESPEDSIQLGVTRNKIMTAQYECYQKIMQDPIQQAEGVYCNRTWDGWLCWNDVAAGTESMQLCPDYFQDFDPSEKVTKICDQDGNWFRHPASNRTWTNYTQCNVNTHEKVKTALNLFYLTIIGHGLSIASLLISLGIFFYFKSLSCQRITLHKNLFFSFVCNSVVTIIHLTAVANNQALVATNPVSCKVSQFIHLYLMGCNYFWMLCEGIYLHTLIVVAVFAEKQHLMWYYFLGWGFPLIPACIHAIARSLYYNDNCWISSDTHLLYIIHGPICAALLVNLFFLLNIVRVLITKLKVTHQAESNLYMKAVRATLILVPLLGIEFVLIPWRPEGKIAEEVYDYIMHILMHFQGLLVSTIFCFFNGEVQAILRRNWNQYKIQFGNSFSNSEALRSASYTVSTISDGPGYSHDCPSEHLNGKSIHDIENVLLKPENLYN
T1 sequence (O60894 27-148): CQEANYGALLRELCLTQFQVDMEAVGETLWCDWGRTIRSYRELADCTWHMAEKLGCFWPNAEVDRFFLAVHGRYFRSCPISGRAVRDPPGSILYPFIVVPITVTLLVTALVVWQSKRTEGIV
The experiment can be described thus: CGRP Binding Assay ([125I]-CGRP radioligand binding, SK-N-MC homogenate). To be noted: displacement of [125I]-CGRP, SK-N-MC homogenate; read-out: CGRP binding IC50. Here is the method: Tissue Culture. SK-N-MC cells were grown at 37° C. in 5% CO2 as a monolayer in medium consisting of MEM with Earle's salts and L-glutamine (Gibco) supplemented with 10% fetal bovine serum (Gibco).
Cell Pellets. […] The cells were transferred from plates to polypropylene tubes (16×100 mm) and homogenized using a polytron. Homogenates were centrifuged at 32,000×g for 30 min. The pellets were resuspended in cold hypotonic lysis buffer with 0.1% mammalian protease inhibitor cocktail (Sigma) and assayed for protein concentration. The SK-N-MC homogenate was then aliquoted and stored at −80° C. until needed.
Radioligand Binding Assay. The compounds of invention were solubilized and carried through serial dilutions using 100% DMSO. Aliquots from the compound serial dilutions were further diluted 25 fold into assay buffer (50 mM Tris-Cl pH 7.5, 5 mM MgCl2, 0.005% Triton X-100) and transferred (volume 50 μl) into 96 well assay plates. […] SK-N-MC pellets were thawed, diluted in assay buffer with fresh 0.1% mammalian protease inhibitor cocktail (Sigma), and homogenized again. SK-N-MC homogenate (5 μg/well) was added in a volume of 100 μl. The assay plates were then incubated at room temperature for 2 h. Assays were stopped by addition of excess cold wash buffer (20 mM Tris-Cl pH 7.5, 0.1% BSA) immediately followed by filtration over glass fiber filters (Whatman GF/B) previously soaked in 0.5% PEI. Non-specific binding was defined with 1 μM beta-CGRP. Protein bound radioactivity was determined using a gamma or scintillation counter.
(In a radioligand displacement assay an active substance lowers the binding of a labelled ligand.)
Turning to `O=C(C[C@H](NCc1c[nH]cn1)C(=O)N1CCC(N2CCCCC2)CC1)N1CCC(N2Cc3ccccc3NC2=O)CC1` [Example 98, (L)-1-[1,4′]Bipiperidinyl-1′-yl-2-[(1H-imidazol-4-ylmethyl)-amino]-4-[4-(2-oxo-1,4-dihydro-2H-quinazolin-3-yl)-piperidin-1-yl]-butane-1,4-dione], the IC50 is over 1000 nM.

As for `O=C(N[C@@H](CC(=O)N1CCC(N2Cc3ccccc3NC2=O)CC1)C(=O)N1CCC(N2CCCCC2)CC1)c1ccc(O)cc1` [Example 100, (L)-N-{1-([1,4′]Bipiperidinyl-1′-carbonyl)-3-oxo-3-[4-(2-oxo-1,4-dihydro-2H-quinazolin-3-yl)-piperidin-1-yl]-propyl}-4-hydroxy-benzamide], the IC50 fell in the range of 100 to 1000 nM.

`O=C(N[C@@H](CC(=O)N1CCC(N2Cc3ccccc3NC2=O)CC1)C(=O)N1CCC(N2CCCCC2)CC1)c1cc[nH]n1` [Example 101, (L)-1H-Pyrazole-3-carboxylic acid{1-([1,4′]bipiperidinyl-1′-carbonyl)-3-oxo-3-[4-(2-oxo-1,4-dihydro-2H-quinazolin-3-yl)-piperidin-1-yl]-propyl}-amide]: the IC50 was over 1000 nM.

On to `O=C(N[C@@H](CC(=O)N1CCC(N2Cc3ccccc3NC2=O)CC1)C(=O)N1CCC(N2CCCCC2)CC1)c1ccc(F)c(F)c1` [Example 102], for which the IC50 is 100 to 1000 nM.

Turning to `O=C(N[C@@H](CC(=O)N1CCC(N2Cc3ccccc3NC2=O)CC1)C(=O)N1CCC(N2CCCCC2)CC1)C1CC1` [Example 103], the IC50 fell in the range of 100 to 1000 nM.

In the case of `O=C(N[C@@H](CC(=O)N1CCC(N2Cc3ccccc3NC2=O)CC1)C(=O)N1CCC(N2CCCCC2)CC1)[C@@H]1C[C@H]1c1ccccc1` [Example 104], the IC50 was 100 to 1000 nM.

For the compound `O=C(N[C@@H](CC(=O)N1CCC(N2Cc3ccccc3NC2=O)CC1)C(=O)N1CCC(N2CCCCC2)CC1)c1cccc(F)c1` [Example 105], the IC50 was in the range of 100 to 1000 nM.

For `O=C(Cc1ccccc1)N[C@@H](CC(=O)N1CCC(N2Cc3ccccc3NC2=O)CC1)C(=O)N1CCC(N2CCCCC2)CC1` [Example 106], the IC50 lay within 100 to 1000 nM.

For `O=C(N[C@@H](CC(=O)N1CCC(N2Cc3ccccc3NC2=O)CC1)C(=O)N1CCC(N2CCCCC2)CC1)c1cc(C(F)(F)F)cc(C(F)(F)F)c1` [Example 107], the IC50 is 100 to 1000 nM.

`O=C(N[C@@H](CC(=O)N1CCC(N2Cc3ccccc3NC2=O)CC1)C(=O)N1CCC(N2CCCCC2)CC1)c1cc(Cl)cc(Cl)c1` [Example 108]: the IC50 fell in the range of 100 to 1000 nM.

Take `COc1ccc(CC(=O)N[C@@H](CC(=O)N2CCC(N3Cc4ccccc4NC3=O)CC2)C(=O)N2CCC(N3CCCCC3)CC2)cc1OC` [Example 109]: the IC50 lay within 100 to 1000 nM.

`O=C(N[C@@H](CC(=O)N1CCC(N2Cc3ccccc3NC2=O)CC1)C(=O)N1CCC(N2CCCCC2)CC1)c1ccccc1` [Example 110]: the IC50 fell in the range of 100 to 1000 nM.

As for `O=C(N[C@@H](CC(=O)N1CCC(N2Cc3ccccc3NC2=O)CC1)C(=O)N1CCC(N2CCCCC2)CC1)c1ccc(Cl)c(Cl)c1` [Example 111], the IC50 fell in the range of 100 to 1000 nM.

Take `O=C(COc1ccc(Cl)cc1)N[C@@H](CC(=O)N1CCC(N2Cc3ccccc3NC2=O)CC1)C(=O)N1CCC(N2CCCCC2)CC1` [Example 112]: the IC50 is 100 to 1000 nM.

With `O=C(N[C@@H](CC(=O)N1CCC(N2Cc3ccccc3NC2=O)CC1)C(=O)N1CCC(N2CCCCC2)CC1)c1cccc([N+](=O)[O-])c1` [Example 113], the IC50 was 100 to 1000 nM.

Consider `O=C(N[C@@H](CC(=O)N1CCC(N2Cc3ccccc3NC2=O)CC1)C(=O)N1CCC(N2CCCCC2)CC1)c1ccc2c(c1)OCO2` [Example 114], for which the IC50 lay in the range of 100 to 1000 nM.

Take `O=C(C[C@H](NC(=O)n1c2ccccc2c2ccccc21)C(=O)N1CCC(N2CCCCC2)CC1)N1CCC(N2Cc3ccccc3NC2=O)CC1` [Example 115]: the IC50 was in the range of 100 to 1000 nM.

With `O=C(N[C@@H](CC(=O)N1CCC(N2Cc3ccccc3NC2=O)CC1)C(=O)N1CCC(N2CCCCC2)CC1)c1cccs1` [Example 116], the IC50 lay in the range of 100 to 1000 nM.

With `O=C(Cc1cccs1)N[C@@H](CC(=O)N1CCC(N2Cc3ccccc3NC2=O)CC1)C(=O)N1CCC(N2CCCCC2)CC1` [Example 117], the IC50 is 100 to 1000 nM.

With `O=C(OCc1ccccc1C(=O)N[C@@H](CC(=O)N1CCC(N2Cc3ccccc3NC2=O)CC1)C(=O)N1CCC(N2CCCCC2)CC1)c1ccccc1` [Example 118], the IC50 lay in the range of 100 to 1000 nM.

As to `O=C(N[C@@H](CC(=O)N1CCC(N2Cc3ccccc3NC2=O)CC1)C(=O)N1CCC(N2CCCCC2)CC1)c1ccc(Br)cc1` [Example 119], the concentration for half-maximal inhibition (IC50) lay within 100 to 1000 nM.

Take `CC(=O)N[C@@H](CC(=O)N1CCC(N2Cc3ccccc3NC2=O)CC1)C(=O)N1CCC(N2CCCCC2)CC1` [Example 120]: the IC50 lay within 100 to 1000 nM.

For `O=C(N[C@@H](CC(=O)N1CCC(N2Cc3ccccc3NC2=O)CC1)C(=O)N1CCC(N2CCCCC2)CC1)c1cccc(OC(F)(F)F)c1` [Example 121], the IC50 fell in the range of 100 to 1000 nM.

For the compound `O=C(N[C@@H](CC(=O)N1CCC(N2Cc3ccccc3NC2=O)CC1)C(=O)N1CCC(N2CCCCC2)CC1)c1cc(F)cc(F)c1` [Example 122], the IC50 lay in the range of 100 to 1000 nM.

`O=C(N[C@@H](CC(=O)N1CCC(N2Cc3ccccc3NC2=O)CC1)C(=O)N1CCC(N2CCCCC2)CC1)c1cccc(Cl)c1Cl` [Example 123]: the IC50 is 10 to 100 nM.

Regarding `O=C(N[C@@H](CC(=O)N1CCC(N2Cc3ccccc3NC2=O)CC1)C(=O)N1CCC(N2CCCCC2)CC1)c1ccc([N+](=O)[O-])o1` [Example 124], the IC50 fell in the range of 100 to 1000 nM.

With `O=C(N[C@@H](CC(=O)N1CCC(N2Cc3ccccc3NC2=O)CC1)C(=O)N1CCC(N2CCCCC2)CC1)c1sc2ccccc2c1Cl` [Example 125], the IC50 was 100 to 1000 nM.

As to `O=C(N[C@@H](CC(=O)N1CCC(N2Cc3ccccc3NC2=O)CC1)C(=O)N1CCC(N2CCCCC2)CC1)c1cc2ccccc2s1` [Example 126], the IC50 lay within 100 to 1000 nM.

With `O=C(Cc1ccc(Cl)cc1)N[C@@H](CC(=O)N1CCC(N2Cc3ccccc3NC2=O)CC1)C(=O)N1CCC(N2CCCCC2)CC1` [Example 127], the IC50 was 100 to 1000 nM.

In the case of `COc1cc(C(=O)N[C@@H](CC(=O)N2CCC(N3Cc4ccccc4NC3=O)CC2)C(=O)N2CCC(N3CCCCC3)CC2)cc(OC)c1OC` [Example 128], the IC50 lay in the range of 100 to 1000 nM.

Consider `O=C(N[C@@H](CC(=O)N1CCC(N2Cc3ccccc3NC2=O)CC1)C(=O)N1CCC(N2CCCCC2)CC1)c1cccc(Cl)c1` [Example 129], for which the IC50 was in the range of 100 to 1000 nM.

As for `O=C(N[C@@H](CC(=O)N1CCC(N2Cc3ccccc3NC2=O)CC1)C(=O)N1CCC(N2CCCCC2)CC1)Oc1ccccc1` [Example 130], the IC50 fell in the range of 100 to 1000 nM.

For `O=C(N[C@@H](CC(=O)N1CCC(N2Cc3ccccc3NC2=O)CC1)C(=O)N1CCC(N2CCCCC2)CC1)Oc1ccc(F)cc1` [Example 131], the IC50 fell in the range of 100 to 1000 nM.

With `Cc1ccc(OC(=O)N[C@@H](CC(=O)N2CCC(N3Cc4ccccc4NC3=O)CC2)C(=O)N2CCC(N3CCCCC3)CC2)cc1` [Example 132], the IC50 fell in the range of 100 to 1000 nM.

For `O=C(N[C@@H](CC(=O)N1CCC(N2Cc3ccccc3NC2=O)CC1)C(=O)N1CCC(N2CCCCC2)CC1)Oc1ccc(Br)cc1` [Example 133], the IC50 is 100 to 1000 nM.
